In assay [1] the target is Activin receptor type-1-like (Homo sapiens) (UniProt P37023). Conditions: Compound concentration 1000.0 nM.
The target in assay [2] is Peripheral plasma membrane protein CASK (Homo sapiens) (UniProt O14936). Conditions: Compound concentration 1000.0 nM.
In assay [3] the target is Cyclin-dependent kinase-like 3 (Homo sapiens) (UniProt Q8IVW4). Conditions: Compound concentration 1000.0 nM.
Assay [4] has as its target T1, Serine/threonine-protein kinase DCLK3 (Homo sapiens) (UniProt Q9C098).
T1 sequence (whole entry): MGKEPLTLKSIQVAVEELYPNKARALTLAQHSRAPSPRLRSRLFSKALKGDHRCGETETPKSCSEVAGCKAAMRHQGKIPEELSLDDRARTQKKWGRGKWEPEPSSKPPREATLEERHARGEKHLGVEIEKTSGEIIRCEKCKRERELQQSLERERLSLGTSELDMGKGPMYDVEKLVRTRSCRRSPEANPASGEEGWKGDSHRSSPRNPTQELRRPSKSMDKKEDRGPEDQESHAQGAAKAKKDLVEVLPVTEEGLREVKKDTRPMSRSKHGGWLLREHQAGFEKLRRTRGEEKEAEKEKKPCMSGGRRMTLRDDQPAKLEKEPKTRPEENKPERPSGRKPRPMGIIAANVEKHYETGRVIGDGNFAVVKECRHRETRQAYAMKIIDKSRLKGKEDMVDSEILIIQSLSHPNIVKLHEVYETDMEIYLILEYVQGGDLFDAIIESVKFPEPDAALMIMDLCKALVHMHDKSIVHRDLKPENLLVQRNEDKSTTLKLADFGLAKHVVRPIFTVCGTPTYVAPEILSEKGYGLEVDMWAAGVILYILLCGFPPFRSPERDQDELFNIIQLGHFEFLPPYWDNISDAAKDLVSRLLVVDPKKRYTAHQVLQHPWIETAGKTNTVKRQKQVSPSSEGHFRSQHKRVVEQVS
As to conditions: Compound concentration 1000.0 nM.

Assay [5] deals with Serine/threonine-protein kinase MARK2 (Homo sapiens) (UniProt Q7KZI7). As to conditions: Compound concentration 1000.0 nM.
In assay [6] the target is T2, Serine/threonine-protein kinase Nek2 (Homo sapiens) (UniProt P51955).
T2 sequence (whole entry): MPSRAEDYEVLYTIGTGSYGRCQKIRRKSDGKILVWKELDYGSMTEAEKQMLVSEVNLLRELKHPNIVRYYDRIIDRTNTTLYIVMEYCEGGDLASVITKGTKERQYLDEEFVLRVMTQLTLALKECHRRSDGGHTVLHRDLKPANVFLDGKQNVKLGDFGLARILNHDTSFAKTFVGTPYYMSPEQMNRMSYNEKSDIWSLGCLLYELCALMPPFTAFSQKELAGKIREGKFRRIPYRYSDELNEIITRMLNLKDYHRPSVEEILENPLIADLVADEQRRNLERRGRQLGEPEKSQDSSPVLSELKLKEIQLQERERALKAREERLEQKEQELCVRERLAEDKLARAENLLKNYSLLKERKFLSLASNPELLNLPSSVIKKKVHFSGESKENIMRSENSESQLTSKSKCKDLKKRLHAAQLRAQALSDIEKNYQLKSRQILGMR
As to conditions: Compound concentration 1000.0 nM.

For assay [7], the system named is Phosphatidylinositol 4,5-bisphosphate 3-kinase catalytic subunit alpha isoform (Homo sapiens), P42336 [E542K]. Conditions: Compound concentration 1000.0 nM.
Assay [8] concerns the target Phosphatidylinositol 4,5-bisphosphate 3-kinase catalytic subunit gamma isoform (Homo sapiens) (UniProt P48736). Conditions: Compound concentration 1000.0 nM.
The target in assay [9] is Serine/threonine-protein kinase PLK2 (Homo sapiens) (UniProt Q9NYY3). Conditions: Compound concentration 1000.0 nM.
In assay [10] the target is T3, Protein kinase C epsilon type (Homo sapiens) (UniProt Q02156).
T3 sequence (whole entry): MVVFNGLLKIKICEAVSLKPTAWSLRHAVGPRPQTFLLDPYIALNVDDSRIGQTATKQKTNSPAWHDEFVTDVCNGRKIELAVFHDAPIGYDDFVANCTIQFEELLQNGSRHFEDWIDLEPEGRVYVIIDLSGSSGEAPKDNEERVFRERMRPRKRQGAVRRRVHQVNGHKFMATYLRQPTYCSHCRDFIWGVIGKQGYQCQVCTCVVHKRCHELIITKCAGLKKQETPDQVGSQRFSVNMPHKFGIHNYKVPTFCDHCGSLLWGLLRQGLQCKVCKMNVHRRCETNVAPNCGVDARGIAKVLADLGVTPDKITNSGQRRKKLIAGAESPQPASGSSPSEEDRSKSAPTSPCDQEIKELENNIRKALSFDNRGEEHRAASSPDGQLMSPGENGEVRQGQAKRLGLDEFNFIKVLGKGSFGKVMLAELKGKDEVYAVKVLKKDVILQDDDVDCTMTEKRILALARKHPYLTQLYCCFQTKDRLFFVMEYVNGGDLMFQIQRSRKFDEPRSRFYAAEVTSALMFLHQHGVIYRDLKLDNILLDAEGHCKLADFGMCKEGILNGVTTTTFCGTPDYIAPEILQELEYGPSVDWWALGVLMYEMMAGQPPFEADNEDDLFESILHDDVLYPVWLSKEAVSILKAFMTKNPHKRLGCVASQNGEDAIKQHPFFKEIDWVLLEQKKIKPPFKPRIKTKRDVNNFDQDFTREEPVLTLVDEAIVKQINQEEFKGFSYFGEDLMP
As to conditions: Compound concentration 1000.0 nM.

In assay [11] the target is Ribosomal protein S6 kinase alpha-6 (Homo sapiens) (UniProt Q9UK32). As to conditions: Compound concentration 1000.0 nM.
The target of assay [12] is Tyrosine-protein kinase receptor Tie-1 (Homo sapiens) (UniProt P35590). As to conditions: Compound concentration 1000.0 nM.
In assay [13] the target is Serine/threonine-protein kinase 32A (Homo sapiens) (UniProt Q8WU08). As to conditions: Compound concentration 1000.0 nM.
For assay [14], the target named is 5-hydroxytryptamine receptor 2A (Homo sapiens) (UniProt P28223). Conditions: Compound concentration 10.0 uM.
Assay [15] has as its target D(4) dopamine receptor (Homo sapiens) (UniProt P21917). As to conditions: Compound concentration 10.0 uM.
In assay [16] the target is Muscarinic acetylcholine receptor M5 (Homo sapiens) (UniProt P08912). Conditions: Compound concentration 10.0 uM.
Sequence of Muscarinic acetylcholine receptor M5 (Homo sapiens) (P08912 whole entry): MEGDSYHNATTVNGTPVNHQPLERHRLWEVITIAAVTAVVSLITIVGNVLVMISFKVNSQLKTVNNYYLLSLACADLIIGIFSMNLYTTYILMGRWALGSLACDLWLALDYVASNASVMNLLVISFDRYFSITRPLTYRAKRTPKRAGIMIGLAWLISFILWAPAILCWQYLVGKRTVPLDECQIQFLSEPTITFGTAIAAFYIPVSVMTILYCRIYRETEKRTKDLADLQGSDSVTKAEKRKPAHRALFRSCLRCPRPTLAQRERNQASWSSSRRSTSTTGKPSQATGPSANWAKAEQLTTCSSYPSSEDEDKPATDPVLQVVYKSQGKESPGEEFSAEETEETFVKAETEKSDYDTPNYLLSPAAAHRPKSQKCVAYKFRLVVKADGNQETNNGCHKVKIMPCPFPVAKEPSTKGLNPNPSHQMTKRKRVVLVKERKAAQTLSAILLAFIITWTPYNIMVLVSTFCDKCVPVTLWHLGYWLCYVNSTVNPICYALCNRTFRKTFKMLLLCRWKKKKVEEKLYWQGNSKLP

Sequence of Tyrosine-protein kinase receptor Tie-1 (Homo sapiens) (P35590 whole entry): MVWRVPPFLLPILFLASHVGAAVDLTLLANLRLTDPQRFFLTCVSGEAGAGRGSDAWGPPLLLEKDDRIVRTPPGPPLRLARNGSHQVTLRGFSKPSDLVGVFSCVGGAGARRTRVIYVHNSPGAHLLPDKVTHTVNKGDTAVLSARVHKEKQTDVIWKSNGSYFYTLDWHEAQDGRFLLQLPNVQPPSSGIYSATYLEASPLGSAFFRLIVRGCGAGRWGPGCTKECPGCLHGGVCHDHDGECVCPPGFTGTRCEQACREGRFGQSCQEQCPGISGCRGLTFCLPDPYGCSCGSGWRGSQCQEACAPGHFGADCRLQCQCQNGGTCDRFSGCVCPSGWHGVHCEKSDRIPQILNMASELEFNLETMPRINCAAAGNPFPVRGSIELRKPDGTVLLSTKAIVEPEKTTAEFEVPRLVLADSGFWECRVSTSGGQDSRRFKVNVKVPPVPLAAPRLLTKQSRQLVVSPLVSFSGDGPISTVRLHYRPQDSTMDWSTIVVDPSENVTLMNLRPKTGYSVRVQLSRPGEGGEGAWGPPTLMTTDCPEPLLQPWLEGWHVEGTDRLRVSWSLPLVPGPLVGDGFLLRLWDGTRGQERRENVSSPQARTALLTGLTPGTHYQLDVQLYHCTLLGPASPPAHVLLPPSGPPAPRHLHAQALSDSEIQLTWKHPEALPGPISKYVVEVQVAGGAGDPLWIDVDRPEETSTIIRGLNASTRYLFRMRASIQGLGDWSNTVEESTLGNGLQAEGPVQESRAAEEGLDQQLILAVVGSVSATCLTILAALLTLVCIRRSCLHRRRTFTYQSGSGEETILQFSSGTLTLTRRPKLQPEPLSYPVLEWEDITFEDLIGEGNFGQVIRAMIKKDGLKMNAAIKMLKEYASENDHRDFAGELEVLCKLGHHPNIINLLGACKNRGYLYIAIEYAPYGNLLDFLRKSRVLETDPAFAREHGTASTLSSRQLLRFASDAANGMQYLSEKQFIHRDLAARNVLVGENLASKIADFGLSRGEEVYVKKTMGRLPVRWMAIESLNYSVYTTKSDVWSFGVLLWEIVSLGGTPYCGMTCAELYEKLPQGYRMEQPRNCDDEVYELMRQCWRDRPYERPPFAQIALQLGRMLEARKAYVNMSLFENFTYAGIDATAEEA
Sequence of Activin receptor type-1-like (Homo sapiens) (P37023 whole entry): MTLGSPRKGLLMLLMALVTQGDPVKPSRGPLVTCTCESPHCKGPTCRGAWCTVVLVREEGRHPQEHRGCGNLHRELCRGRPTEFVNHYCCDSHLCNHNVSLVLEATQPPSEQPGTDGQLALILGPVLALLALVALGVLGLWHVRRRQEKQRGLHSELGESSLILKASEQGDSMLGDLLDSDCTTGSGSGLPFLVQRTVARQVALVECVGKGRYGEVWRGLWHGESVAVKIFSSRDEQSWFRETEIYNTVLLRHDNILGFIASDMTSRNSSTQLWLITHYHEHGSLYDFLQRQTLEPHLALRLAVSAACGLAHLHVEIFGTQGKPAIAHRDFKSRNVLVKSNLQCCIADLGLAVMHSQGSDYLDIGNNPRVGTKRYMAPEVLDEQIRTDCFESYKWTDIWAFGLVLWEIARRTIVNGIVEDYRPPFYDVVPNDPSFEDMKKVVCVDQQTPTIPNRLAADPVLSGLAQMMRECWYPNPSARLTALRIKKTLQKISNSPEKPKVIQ
Sequence of Peripheral plasma membrane protein CASK (Homo sapiens) (O14936 whole entry): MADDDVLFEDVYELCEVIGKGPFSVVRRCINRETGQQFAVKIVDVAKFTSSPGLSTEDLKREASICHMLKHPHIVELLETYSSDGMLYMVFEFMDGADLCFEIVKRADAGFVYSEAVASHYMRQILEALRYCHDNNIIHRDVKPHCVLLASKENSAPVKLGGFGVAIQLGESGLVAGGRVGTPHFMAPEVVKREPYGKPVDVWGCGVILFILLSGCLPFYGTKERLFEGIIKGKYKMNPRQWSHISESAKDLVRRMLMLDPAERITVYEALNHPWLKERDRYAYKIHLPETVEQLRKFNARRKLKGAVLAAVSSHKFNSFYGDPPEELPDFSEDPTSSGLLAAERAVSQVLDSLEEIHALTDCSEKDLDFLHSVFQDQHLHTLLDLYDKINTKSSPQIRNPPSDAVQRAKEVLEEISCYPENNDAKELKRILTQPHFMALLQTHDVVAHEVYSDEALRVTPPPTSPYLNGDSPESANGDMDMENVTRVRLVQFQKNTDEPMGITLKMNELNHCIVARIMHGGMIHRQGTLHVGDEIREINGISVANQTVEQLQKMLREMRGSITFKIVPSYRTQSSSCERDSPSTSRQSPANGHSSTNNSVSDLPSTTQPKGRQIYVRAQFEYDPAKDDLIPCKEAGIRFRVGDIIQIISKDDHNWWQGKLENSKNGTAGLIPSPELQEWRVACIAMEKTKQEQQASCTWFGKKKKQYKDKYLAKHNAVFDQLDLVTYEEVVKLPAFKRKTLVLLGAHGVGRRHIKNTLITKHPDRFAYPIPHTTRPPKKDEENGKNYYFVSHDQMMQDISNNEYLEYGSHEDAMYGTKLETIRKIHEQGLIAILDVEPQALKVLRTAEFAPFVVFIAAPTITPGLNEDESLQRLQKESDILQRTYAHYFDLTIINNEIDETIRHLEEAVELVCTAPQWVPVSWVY
Sequence of 5-hydroxytryptamine receptor 2A (Homo sapiens) (P28223 whole entry): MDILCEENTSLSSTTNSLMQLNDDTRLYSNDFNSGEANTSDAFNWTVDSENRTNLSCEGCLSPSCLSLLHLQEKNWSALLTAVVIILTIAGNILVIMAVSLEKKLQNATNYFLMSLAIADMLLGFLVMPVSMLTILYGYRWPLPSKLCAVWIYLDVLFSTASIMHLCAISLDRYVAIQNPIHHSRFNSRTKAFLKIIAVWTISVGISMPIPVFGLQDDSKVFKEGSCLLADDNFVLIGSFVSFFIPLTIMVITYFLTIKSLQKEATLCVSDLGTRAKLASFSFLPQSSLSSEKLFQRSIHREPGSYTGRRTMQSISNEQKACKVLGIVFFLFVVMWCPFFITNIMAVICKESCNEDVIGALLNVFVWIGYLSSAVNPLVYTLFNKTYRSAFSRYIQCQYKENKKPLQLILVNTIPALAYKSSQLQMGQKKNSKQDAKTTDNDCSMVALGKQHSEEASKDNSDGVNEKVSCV
Sequence of D(4) dopamine receptor (Homo sapiens) (P21917 whole entry): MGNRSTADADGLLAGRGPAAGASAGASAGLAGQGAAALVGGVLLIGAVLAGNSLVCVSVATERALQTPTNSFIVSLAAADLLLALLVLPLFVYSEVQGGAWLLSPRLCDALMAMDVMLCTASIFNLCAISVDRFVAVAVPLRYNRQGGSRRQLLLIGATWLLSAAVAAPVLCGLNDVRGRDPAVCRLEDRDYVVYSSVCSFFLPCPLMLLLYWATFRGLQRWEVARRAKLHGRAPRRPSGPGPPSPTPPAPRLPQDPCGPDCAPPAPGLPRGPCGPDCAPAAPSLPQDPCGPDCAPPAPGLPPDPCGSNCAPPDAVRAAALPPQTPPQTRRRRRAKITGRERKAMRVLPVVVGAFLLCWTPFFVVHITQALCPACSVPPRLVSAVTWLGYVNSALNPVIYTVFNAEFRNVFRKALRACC
Sequence of Serine/threonine-protein kinase 32A (Homo sapiens) (Q8WU08 whole entry): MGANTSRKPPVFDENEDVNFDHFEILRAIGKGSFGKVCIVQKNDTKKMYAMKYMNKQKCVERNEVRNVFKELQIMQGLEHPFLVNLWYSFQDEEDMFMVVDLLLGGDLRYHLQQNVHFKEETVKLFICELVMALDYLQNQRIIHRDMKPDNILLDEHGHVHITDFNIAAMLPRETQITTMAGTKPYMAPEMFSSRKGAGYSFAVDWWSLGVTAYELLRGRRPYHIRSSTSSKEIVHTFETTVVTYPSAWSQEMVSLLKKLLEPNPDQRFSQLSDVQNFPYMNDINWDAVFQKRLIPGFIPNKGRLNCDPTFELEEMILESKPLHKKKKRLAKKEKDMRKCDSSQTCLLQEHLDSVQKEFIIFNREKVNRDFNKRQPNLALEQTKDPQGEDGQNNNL
Sequence of Cyclin-dependent kinase-like 3 (Homo sapiens) (Q8IVW4 whole entry, looked up): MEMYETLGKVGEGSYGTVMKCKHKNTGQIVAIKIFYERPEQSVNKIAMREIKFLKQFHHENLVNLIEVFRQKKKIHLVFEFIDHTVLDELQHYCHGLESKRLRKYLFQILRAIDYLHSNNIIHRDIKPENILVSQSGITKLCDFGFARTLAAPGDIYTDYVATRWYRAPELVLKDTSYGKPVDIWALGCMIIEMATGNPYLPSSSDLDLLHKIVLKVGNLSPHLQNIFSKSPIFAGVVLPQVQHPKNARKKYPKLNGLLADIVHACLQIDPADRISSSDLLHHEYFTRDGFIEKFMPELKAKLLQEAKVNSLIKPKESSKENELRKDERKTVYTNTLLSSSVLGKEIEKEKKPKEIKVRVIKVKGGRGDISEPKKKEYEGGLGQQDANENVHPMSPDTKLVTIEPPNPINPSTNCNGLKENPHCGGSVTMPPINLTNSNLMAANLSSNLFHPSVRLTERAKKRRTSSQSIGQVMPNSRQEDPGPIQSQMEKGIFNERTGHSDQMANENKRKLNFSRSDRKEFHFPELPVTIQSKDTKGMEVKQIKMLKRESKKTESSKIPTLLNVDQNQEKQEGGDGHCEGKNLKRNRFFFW

As a reminder, the residual activity is the activity still measured, relative to the control. The term inhibition denotes the change of the read-out against control, counted positive when it falls. On to `CC1=C(C#N)C(c2ccc3c(c2)c(NC(=O)c2ccccc2C)nn3C)C(C#N)=C(C)N1` [BAY-974], for which the residual activity was 97% in [1]; 67% in assay [2]; 79% in assay [3]; 89% in assay [4]; 99% in assay [5]; 100% in [6]. Further, the residual activity in assay [7] was 91%; in assay [8], 84%; in [9] it was 74%; in assay [10], 85%; in [11], 83%; in assay [12], 94%. In assay [13], the residual activity is 95%. Further, the inhibition in assay [14] is 8.41%; in assay [15] it was 0.21%; in [16] it was 6.82%.
Take `CCc1ccccc1C(=O)Nc1n[nH]c2c(C)c(F)c(C3C(C#N)=C(C)N(C)C(C)=C3C#N)cc12` [BAY-3827]: the residual activity in assay [1] is 75%; in assay [2], 81%; in assay [3] it was 87%; in assay [4], 82%; in assay [5], 40%; in [6], 87%. Besides, the residual activity is 54% in assay [7]; 100% in assay [8]; 97% in assay [9]; 19% in [10]; 100% in assay [11]; 100% in [12]. The residual activity in assay [13] was 100%. For the same compound, the inhibition in assay [14] was 14.8%; in [15], -0.18%; in assay [16], 17.9%.

The values are drawn from ChEMBL document CHEMBL4507319 (2021).
